The target of assay [1] is T1, Serine/threonine-protein kinase TNNI3K (Homo sapiens) (UniProt Q59H18).
T1 sequence (whole entry): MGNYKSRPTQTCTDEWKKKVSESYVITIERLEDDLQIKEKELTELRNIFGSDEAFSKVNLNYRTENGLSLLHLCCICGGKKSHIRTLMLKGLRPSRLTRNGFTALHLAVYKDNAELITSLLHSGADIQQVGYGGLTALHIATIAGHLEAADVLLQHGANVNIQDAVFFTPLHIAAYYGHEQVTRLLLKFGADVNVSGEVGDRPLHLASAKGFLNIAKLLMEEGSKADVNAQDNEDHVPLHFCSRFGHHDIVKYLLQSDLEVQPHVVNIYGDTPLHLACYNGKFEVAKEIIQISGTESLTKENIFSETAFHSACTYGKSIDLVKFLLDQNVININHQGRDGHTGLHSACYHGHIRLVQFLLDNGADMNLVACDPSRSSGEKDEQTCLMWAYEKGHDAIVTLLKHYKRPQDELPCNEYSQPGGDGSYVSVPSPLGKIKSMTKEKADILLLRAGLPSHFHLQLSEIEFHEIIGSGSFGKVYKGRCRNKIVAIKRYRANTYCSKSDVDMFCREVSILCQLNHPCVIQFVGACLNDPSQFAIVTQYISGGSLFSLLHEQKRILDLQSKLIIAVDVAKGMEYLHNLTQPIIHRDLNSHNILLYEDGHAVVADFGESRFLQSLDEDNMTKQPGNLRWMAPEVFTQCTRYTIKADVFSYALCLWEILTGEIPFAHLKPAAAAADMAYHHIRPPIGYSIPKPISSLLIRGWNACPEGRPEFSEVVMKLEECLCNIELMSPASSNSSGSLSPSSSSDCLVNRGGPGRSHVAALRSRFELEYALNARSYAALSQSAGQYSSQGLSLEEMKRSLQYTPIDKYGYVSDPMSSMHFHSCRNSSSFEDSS
As to the kind of experiment: Selectivity interaction (Ambit KINOMEscan and KiNATiv profiling in Jurkat cells) EUB0000090b TNNI3K. The following applies: at 1 µM. It is filed as cell-based.

For assay [2], the target named is Ribosomal protein S6 kinase alpha-5 (Homo sapiens) (UniProt O75582). As to the kind of experiment: Selectivity interaction (KinomeScan (DiscoverX)) EUB0001079a RPS6KA5. The settings on record: at 1 µM.
Sequence of Ribosomal protein S6 kinase alpha-5 (Homo sapiens) (O75582 whole entry, looked up): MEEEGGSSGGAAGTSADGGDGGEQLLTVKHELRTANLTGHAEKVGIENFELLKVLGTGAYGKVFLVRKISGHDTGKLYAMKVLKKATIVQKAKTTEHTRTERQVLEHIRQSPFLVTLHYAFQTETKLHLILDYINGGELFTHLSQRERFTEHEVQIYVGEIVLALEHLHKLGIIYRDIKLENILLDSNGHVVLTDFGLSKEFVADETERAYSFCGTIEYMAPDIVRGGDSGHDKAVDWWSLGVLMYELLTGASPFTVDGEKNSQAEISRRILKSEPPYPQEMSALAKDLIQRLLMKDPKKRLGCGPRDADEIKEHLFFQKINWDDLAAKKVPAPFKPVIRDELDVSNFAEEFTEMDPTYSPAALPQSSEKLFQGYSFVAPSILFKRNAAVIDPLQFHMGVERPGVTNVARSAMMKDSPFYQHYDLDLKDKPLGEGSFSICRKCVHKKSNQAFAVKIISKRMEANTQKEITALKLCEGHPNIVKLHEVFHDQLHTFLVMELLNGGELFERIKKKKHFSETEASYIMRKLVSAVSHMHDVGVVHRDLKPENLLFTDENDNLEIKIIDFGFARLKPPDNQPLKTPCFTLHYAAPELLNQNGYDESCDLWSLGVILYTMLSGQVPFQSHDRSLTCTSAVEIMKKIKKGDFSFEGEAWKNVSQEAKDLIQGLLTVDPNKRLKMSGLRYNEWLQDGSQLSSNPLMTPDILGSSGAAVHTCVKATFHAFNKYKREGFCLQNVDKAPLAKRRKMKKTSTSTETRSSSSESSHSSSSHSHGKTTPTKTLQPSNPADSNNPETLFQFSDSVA
In assay [3] the target is Mast/stem cell growth factor receptor Kit (Homo sapiens, UniProt P10721). Nature of the assay: Selectivity interaction (Kinase panel (Eurofins)) EUB0001564a KIT. The settings on record: at 1 µM.
Sequence of Mast/stem cell growth factor receptor Kit (P10721 whole entry): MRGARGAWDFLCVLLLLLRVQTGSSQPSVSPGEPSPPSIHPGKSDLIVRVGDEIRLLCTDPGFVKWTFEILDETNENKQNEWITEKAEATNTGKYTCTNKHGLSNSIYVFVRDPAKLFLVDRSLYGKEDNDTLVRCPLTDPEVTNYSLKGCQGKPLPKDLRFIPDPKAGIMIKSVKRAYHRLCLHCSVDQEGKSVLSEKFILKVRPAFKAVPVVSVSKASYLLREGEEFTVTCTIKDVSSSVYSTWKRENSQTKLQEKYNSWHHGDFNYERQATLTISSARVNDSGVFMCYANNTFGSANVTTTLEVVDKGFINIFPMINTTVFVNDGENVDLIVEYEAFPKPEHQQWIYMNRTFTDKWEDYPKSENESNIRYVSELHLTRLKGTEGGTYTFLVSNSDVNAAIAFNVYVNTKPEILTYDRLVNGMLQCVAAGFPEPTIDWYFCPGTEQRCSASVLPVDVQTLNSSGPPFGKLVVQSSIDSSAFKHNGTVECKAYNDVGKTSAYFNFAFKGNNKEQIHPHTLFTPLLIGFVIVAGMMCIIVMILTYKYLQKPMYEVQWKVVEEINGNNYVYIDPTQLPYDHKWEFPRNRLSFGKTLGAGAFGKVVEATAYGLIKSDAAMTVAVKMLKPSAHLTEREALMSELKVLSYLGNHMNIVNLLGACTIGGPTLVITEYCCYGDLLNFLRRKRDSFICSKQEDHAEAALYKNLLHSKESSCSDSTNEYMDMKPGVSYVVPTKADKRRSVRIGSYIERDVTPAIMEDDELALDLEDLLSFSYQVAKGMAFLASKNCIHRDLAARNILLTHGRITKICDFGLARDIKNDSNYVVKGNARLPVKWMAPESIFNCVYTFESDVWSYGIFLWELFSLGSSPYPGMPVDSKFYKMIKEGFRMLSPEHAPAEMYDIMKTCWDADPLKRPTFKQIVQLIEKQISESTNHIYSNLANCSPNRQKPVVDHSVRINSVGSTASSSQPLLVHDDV
Assay [4] addresses Serine/threonine-protein kinase SIK1 (Homo sapiens) (UniProt P57059). Nature of the assay: Selectivity interaction (Kinase panel (Carna Biosciences)) EUB0001542aTs SIK1. The settings on record: at 1 µM.
Assay [5] deals with Ribosomal protein S6 kinase alpha-5 (Homo sapiens) (UniProt O75582). As to the kind of experiment: Selectivity interaction (KinomeScan (DiscoverX)) EUB0000045b RPS6KA5. The following applies: at 1 µM.
Assay [6] concerns the target Eukaryotic translation initiation factor 2-alpha kinase 1 (Homo sapiens) (UniProt Q9BQI3). Nature of the assay: Selectivity interaction (KinomeScan (DiscoverX)) EUB0000045b EIF2AK1.
Assay [7] concerns the target T2, Tyrosine-protein kinase Mer (Homo sapiens) (UniProt Q12866).
T2 sequence (whole entry): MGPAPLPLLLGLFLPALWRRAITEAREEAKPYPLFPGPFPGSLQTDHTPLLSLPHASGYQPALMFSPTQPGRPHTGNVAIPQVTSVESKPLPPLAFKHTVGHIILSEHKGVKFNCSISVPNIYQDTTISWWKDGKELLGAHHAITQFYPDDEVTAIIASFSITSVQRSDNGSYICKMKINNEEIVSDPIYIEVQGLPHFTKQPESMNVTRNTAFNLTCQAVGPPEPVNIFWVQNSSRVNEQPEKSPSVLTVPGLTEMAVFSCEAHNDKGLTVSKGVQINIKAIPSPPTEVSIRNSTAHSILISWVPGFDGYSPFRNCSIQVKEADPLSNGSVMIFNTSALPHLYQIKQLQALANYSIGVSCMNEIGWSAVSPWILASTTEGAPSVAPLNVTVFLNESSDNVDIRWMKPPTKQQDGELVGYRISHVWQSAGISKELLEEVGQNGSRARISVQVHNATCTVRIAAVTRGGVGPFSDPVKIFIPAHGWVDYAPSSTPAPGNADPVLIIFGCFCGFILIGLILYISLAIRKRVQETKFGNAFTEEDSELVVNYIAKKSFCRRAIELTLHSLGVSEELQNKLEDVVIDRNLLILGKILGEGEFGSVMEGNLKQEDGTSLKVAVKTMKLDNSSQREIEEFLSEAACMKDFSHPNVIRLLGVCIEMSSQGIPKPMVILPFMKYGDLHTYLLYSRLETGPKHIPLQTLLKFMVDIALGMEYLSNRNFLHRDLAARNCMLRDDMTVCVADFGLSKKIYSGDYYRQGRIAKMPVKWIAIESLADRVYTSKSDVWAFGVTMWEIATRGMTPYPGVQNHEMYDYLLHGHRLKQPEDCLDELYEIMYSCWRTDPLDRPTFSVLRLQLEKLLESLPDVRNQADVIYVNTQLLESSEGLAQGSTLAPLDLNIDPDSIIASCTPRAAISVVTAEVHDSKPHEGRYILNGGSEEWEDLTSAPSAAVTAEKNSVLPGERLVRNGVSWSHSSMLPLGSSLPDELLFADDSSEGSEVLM
As to the kind of experiment: Selectivity interaction (KinomeScan (DiscoverX)) EUB0000045b MERTK.

In assay [8] the target is Cyclin-dependent kinase 14 (Homo sapiens) (UniProt O94921). Nature of the assay: Selectivity interaction (ActivX KiNativ screen (kinase selectivity in THP-1 cell lysates)) EUB0000639a CDK14. It is filed as subcellular. The following applies: lysate, at 0.01 µM.
Sequence of Cyclin-dependent kinase 14 (Homo sapiens) (O94921 whole entry): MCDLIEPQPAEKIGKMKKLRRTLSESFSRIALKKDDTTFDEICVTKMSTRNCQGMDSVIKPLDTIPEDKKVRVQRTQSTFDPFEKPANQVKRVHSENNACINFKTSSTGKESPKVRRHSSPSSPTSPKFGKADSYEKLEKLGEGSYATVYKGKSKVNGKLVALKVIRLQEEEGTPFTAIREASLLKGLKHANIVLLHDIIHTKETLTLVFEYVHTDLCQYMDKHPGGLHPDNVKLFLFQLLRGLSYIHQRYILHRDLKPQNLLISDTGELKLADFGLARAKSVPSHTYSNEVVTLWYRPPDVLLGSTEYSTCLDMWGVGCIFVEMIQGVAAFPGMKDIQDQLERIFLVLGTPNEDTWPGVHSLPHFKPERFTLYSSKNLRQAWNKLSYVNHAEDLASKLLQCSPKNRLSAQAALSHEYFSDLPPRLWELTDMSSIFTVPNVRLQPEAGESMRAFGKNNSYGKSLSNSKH

Among the data in ChEMBL document CHEMBL5465560, “Selectivity Literature for EUbOPEN Chemogenomic Library” (2024) are % of control and % of inhibition values, retold here.

Sequence of Eukaryotic translation initiation factor 2-alpha kinase 1 (Homo sapiens) (Q9BQI3 whole entry): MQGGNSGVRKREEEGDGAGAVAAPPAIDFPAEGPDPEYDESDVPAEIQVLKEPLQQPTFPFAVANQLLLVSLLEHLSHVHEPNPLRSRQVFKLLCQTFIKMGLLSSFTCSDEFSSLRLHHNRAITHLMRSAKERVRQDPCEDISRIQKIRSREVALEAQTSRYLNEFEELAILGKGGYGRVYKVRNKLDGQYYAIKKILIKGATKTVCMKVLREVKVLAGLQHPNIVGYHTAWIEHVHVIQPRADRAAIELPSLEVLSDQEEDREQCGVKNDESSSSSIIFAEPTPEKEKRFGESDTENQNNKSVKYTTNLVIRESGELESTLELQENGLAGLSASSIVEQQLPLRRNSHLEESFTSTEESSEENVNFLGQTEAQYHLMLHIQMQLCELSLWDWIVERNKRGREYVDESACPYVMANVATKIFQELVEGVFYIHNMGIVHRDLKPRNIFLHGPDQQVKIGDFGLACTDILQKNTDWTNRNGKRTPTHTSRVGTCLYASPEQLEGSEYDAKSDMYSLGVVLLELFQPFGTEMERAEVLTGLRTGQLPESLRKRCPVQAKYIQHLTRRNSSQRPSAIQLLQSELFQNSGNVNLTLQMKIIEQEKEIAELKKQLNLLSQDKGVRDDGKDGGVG
Sequence of Serine/threonine-protein kinase SIK1 (Homo sapiens) (P57059 whole entry): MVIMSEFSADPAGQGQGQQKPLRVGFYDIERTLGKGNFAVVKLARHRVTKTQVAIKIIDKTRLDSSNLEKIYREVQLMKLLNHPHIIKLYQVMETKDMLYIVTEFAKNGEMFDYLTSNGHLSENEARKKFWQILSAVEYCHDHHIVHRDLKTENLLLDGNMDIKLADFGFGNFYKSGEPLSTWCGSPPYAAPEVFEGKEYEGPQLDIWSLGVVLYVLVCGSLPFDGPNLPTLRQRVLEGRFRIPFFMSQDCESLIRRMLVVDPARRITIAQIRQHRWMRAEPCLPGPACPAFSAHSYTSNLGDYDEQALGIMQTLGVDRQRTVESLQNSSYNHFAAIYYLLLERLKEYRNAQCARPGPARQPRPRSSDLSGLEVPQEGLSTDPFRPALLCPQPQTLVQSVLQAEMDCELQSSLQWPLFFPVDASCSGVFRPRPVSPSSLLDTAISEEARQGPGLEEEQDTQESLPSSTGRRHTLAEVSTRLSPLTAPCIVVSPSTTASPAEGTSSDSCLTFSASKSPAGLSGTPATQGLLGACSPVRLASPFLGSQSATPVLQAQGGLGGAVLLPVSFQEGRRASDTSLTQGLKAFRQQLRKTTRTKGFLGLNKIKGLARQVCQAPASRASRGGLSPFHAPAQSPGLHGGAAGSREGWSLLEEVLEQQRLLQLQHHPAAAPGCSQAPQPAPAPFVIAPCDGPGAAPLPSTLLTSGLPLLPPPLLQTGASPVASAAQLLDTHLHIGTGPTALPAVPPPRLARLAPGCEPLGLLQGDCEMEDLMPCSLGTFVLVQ

For the molecule `CN(C)C/C=C/C(=O)Nc1ccc(C(=O)N2CCCC(Nc3ncc(Cl)c(-c4c[nH]c5ccccc45)n3)C2)cc1` (stereo not given), the % of control in assay [1] worked out at 86%.
In turn, `Nc1cnc(N2CCc3cc(S(=O)(=O)Nc4c(F)cc(Cl)cc4F)cc(N4CCCC4=O)c32)nc1` [TP-020n] had a % of control in assay [2] of 95%.
Take `CC[C@@H](Nc1c(C#N)c(-c2ccc(-c3cccc(C)c3F)cc2)nc2cnccc12)C(=O)O` [BAY-091]: the % of inhibition in assay [3] was 22.3%.
With `Cn1cc(Nc2nccc(N3CC4CCC(C3)N4C(=O)[C@@H]3CC3(F)F)n2)cn1`, the % of inhibition in assay [4] is 77%.
For the molecule `C=CC(=O)Nc1cc(-n2c(=O)ccc3cnc4ccc(-c5ccc(NS(C)(=O)=O)cc5)cc4c32)ccc1C`, the % of control was 95% in assay [5]; 100% in assay [6] (at 1 µM); 100% in assay [6] (at 10 µM); 72% in assay [7] (at 1 µM); 100% in assay [7] (at 10 µM).
As to `CC[C@@H]1[C@H](F)C(=O)N[C@@H]1COc1nccc2cc(C(N)=O)c(OC)cc12` [ZIMLOVISERTIB], the % of inhibition in assay [8] is -16.8%.
